The values below come from article PMC12418948, “Intranasal Administration of KCNN2 Blocking Peptide Improves Deficits in Cognitive Flexibility in Mouse Model of Fetal Alcohol Spectrum Disorders” (International Journal of Neuropsychopharmacology, 2025).

Positions of bridges follow the written chain, without caps; N, C: chain ends. Residues, ends and D or L forms follow the SMILES beside them. No end group written: not given here.

In series [1] the test system is KCNN (SK) channel. The note with it: cited from earlier work.
The conditions of series [2]: pregnant CD-1 mice, i.p. 4.0 g/kg/day 25% ethanol at E16 and E17; from 30 minutes after injection at E16 to 1 hour after injection at E17; cited from earlier work. The method, then: All mice (CD-1) used in this study were purchased from Charles River Laboratories and were maintained in-house on a light–dark cycle (lights on 6:00 AM to 6:00 PM) at a constant temperature (22 ± 1°C). Pregnant mice received i.p. injections of 25% ethanol in PBS at 4.0 g/kg/day or PBS only as the control at embryonic day (E) 16 and E17. The dam’s blood alcohol concentration ranges from approximately 140 to 300 mg/dL (from 30 minutes after injection at E16 to 1 hour after injection at E17).[35] All procedures were approved by the institutional animal care and use committee of the Children’s Nat ...

For series [3] the following is noted: i.p. administration, PAE mice; cited from earlier work. The source says:
KCNN2 plays a key role in regulating neuronal excitability by controlling the medium afterhyperpolarization.[20] Previous studies have shown that KCNN2 blockers have therapeutic effects to improve learning and memory in several mouse and rat models of neuropsychiatric disorders associated with increased KCNN2 expression.[21–24]

The target in series [4] is human KCNN2 (Homo sapiens, UniProt Q9H2S1). Description: Thallium flux assay, KCNN2 channel block. It is filed as cell-based. Conditions: HEK293 stably expressing human KCNN2; thallium flux, FLIPR Potassium Assay Kit, FLIPR TETRA; 4 concentrations, n = 4; 0% = 1 μM A23187, 100% = 3 μM UCL1684. Here is the method:
The effect of tamapin and Lei-Dab7 to block the KCNN2 channel was assessed by the thallium flux (potassium ion surrogate) assay using FLIPR Potassium Assay KIT (Molecular Devices, CA) and a FLIPR TETRA fluorescence imaging plate reader (Molecular Devices, CA). Human embryonic kidney (HEK) 293 cell line stably expressing human KCNN2 (Charles River, MA) were plated on BioCoat Poly-D-Lysine 384-well Black/Clear Plates (BD Biosciences, NJ) at 15 000 to 30 000 cells per well and incubated at 37°C overnight or until cells form near confluent monolayer. A baseline fluorescence was recorded during the pre-incubation period, followed by activation in the stimulus buffer (K^+-free buffer with 5 mM Tl^+). The effects of tamapin and Lei-Dab7 on KCNN2 to inhibit KCNN2 channel were evaluated at 4 different concentrations (n = 4) each, based on fluorescence changes due to the treatments. The signal elicited by the respective positive control agonist [1 μM A23187 (Tocris, UK)] was set to 0% inhibition, and the signal in the presence of the respective positive control antagonists [3 μM UCL1684 (Tocris, UK)] was set to 100% inhibition. The IC50 values were defined as the concentration at which the percent inhibition equals 50.
To determine the dose of Lei-Dab7 to be tested, we compared the effect of Lei-Dab7 and tamapin in blocking human KCNN2 expressed in HEK293 cells using a thallium-based potassium ion channel assay. […] Based on the effective dose of tamapin in mitigating motor skill–learning deficits in PAE mice (15 μg/kg body weight via i.p.)[17] and higher brain uptake of therapeutics by intranasal delivery than by i.p. delivery, we chose a dose of 3.0 μg/kg body weight to test the effect of intranasal administration of Lei-Dab7.
Supplementary Figure 3. Concentration-response relationships of Lei-Dab7 and Tamapin on the Inhibition of KCNN2 channels. (A, B) The concentration-response relationships of Lei-Dab7 (A) and Tamapin (B) on the inhibition of KCNN2 (SK2) channels examined by the thallium flux assay are presented. […]

The subject of series [5] is KCNN2. Conditions: compared with Lei-Dab7; cited from earlier work. The source says: KCNN2 plays a key role in regulating neuronal excitability by controlling the medium afterhyperpolarization.[20] Previous studies have shown that KCNN2 blockers have therapeutic effects to improve learning and memory in several mouse and rat models of neuropsychiatric disorders associated with increased KCNN2 expression.[21–24] […] In the current study, we used another KCNN2 blocker, Lei-Dab7 (a synthetic derivative of leiurotoxin), a peptide isolated from the venom of the yellow scorpion (L. quinquestriatus hebraeus). […] We evaluated intranasal administ ... || Taken together, our findings advocate for the therapeutic potential of Lei-Dab7 or other KCNN2 blockers for FASD and possibly other neurodevelopmental diseases that similarly involve KCNN2 upregulation, such as Angelman syndrome.[21] Lei-Dab7 stands out for its high potency and specificity in blocking the KCNN2 channel. […] Despite outstanding properties, Lei-Dab7’s bioavailability, efficacy, and toxicity as a the ...

The subject of series [6] is rat. Further details: method as in 2 sources, one per row (each row's own in cited_ref): ref 82 = [82]; PMID 15985330; doi:10.1016/j.neulet.2005.05.050; 82. Deschaux O , Bizot JC . Apamin produces selective improvements of learning in rats . Neurosci Lett. 2005; 386 : 5 – 8 . 10.1016/j.neulet.2005.05.050 15985330 ||| ref 26, 82, 83 = [26]; PMID 18561910; doi:10.1016/j.ejphar.2008.05.019; 26. Mpari B , Sreng L , Regaya I , Mourre C . Small-conductance Ca(2+)-activated K(+) channels: heterogeneous affinity in rat brain structures and cognitive modulation by specific blockers . Eur J Pha || [82]; PMID 15985330; doi:10.1016/j.neulet.2005.05.050; 82. Deschaux O , Bizot JC . Apamin produces selective improvements of learning in rats . Neurosci Lett. 2005; 386 : 5 – 8 . 10.1016/j.neulet.2005.05.050 15985330 || [83]; PMID 9148239; doi:10.1016/s0304-3940(97)13367-5; 83. Deschaux O , Bizot JC , Goyffon M . Apamin improves learning in an object recognition task in rats . Neurosci Lett. 1997; 222 : 159 – 162 . 10.1016/s0304-3940(97)13367-5 9148239. The note with it: cited from earlier work.

Series [7] concerns older adults affected by Alzheimer disease or mild cognitive impairment. The note with it: intranasal; older adults with Alzheimer disease or mild cognitive impairment; cited from earlier work. The source says:
(§1) The potential of intranasal delivery in treating a broad spectrum of neurological disorders, especially those related to memory and cognition, is noteworthy.[28] Historically, intranasal administration has gained attention in clinical trials as an effective delivery method, especially for small molecules ...

The conditions of series [8]: intranasal vs subcutaneous or intramuscular administration; cited from earlier work.
Text: as §1

In series [9] the test system is neurodevelopmental disorders such as autism spectrum disorder. Conditions: nasal application; cited from earlier work.
Text: as §1

Chain of human KCNN2 (Q9H2S1 whole entry): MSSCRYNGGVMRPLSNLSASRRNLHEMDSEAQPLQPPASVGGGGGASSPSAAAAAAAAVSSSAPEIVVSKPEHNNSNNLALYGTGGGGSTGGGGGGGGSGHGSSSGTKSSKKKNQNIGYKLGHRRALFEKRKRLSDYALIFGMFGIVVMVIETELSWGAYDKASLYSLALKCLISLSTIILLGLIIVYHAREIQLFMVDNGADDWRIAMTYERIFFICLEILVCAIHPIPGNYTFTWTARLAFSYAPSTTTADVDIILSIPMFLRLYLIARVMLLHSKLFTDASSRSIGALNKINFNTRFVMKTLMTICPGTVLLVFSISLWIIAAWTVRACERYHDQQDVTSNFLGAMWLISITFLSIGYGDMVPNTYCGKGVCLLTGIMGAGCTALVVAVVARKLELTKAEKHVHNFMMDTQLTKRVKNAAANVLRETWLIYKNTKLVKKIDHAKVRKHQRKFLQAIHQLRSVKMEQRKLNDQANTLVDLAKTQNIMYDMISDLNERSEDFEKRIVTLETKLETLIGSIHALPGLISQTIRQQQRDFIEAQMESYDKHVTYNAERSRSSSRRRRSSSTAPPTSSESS

Turning to `c1cc2cc(c1)C[n+]1ccc(c3ccccc31)NCc1ccc(cc1)CNc1cc[n+](c3ccccc13)C2` [UCL 1684], the “KCNN (SK) channel blocking specificity” value in series [1] is recorded as “nonspecific KCNN (SK) channel blockers”.

Take `c1ccc2c(c1)c1cc[n+]2CCCCC[n+]2ccc(c3ccccc32)NCCCCCN1` [UCL 1848]: the “KCNN (SK) channel blocking specificity” value in [1] was “nonspecific KCNN (SK) channel blockers”.

For the molecule `CN1CCc2cc3c(cc2[C@H]1[C@@H]1OC(=O)c2c1ccc1c2OCO1)OCO3` [bicuculline], in [1], the “KCNN (SK) channel blocking specificity” value is on record as “nonspecific KCNN (SK) channel blockers”.

Consider `CCO` [ethanol], for which the “dam's blood alcohol concentration” value in [2] is recorded as 140 to 300 mg/dL.

For `CC[C@H](C)[C@@H]1NC(=O)[C@@H]2CSSC[C@H](NC(=O)[C@H](Cc3ccccc3)NC(=O)[C@H](C)N)C(=O)N[C@@H](CC(N)=O)C(=O)N[C@@H](CC(C)C)C(=O)N[C@@H](CCCNC(=N)N)C(=O)N[C@@H](CCCNC(=N)N)C(=O)N[C@H]3CSSC[C@H](NC(=O)[C@H](CCC(=O)O)NC(=O)[C@H](CCC(=O)O)NC(=O)CNC1=O)C(=O)N[C@@H](CCCCN)C(=O)N[C@H](C(=O)N[C@H](C(=O)N1CCC[C@H]1C(=O)N[C@@H](Cc1ccc(O)cc1)C(N)=O)C(C)C)CSSC[C@H](NC(=O)[C@H](CO)NC(=O)[C@H](CC(C)C)NC(=O)[C@H](CCC(=O)O)NC3=O)C(=O)N[C@@H](CCCNC(=N)N)C(=O)N[C@@H](CO)C(=O)N[C@@H](CC(C)C)C(=O)NCC(=O)N[C@@H](CC(C)C)C(=O)N[C@@H](CC(C)C)C(=O)NCC(=O)N[C@@H](CCCCN)C(=O)N2` [tamapin] (H-AFCNLRRCELSCRSLGLLGKCIGEECKCVPY-NH2; disulfide 3-21, 8-26, 12-28), in [3], the “crosses the blood brain barrier” value is “crosses the blood brain barrier”. Also, in series [4], the IC50 (in general, the midpoint of a concentration-inhibition curve) was 50 nM.

For the molecule “apamin (CNCKAPETALCARRCQQH-NH2; disulfide 1-11, 3-15; UniProt P01500 28-45, looked up)”, the “KCNN (SK) channel blocking specificity” value in series [1] was “nonspecific KCNN (SK) channel blockers”. In series [5], the “KCNN2 selectivity in words” value was “less selective KCNN2 blocker”. In series [6], the effect on learning result is “promote learning”.

In the case of insulin, the memory effect entry in series [7] was “improving memory”.

“mouse [D-Leu-4]OB3 [synthetic leptin-like peptide]”: in series [8], the “brain bioavailability, intranasal vs other methods (times)” value was 4 times.

Turning to oxytocin, in series [9], the “efficacy, repeated doses” value is listed as “inconsistent” and the “efficacy, single administration” value was “promising”.

Turning to “scyllatoxin (AFCNLRMCQLSCRSLGLLGKCIGDKCECVKH; UniProt P16341 1-31, looked up)”, the “KCNN (SK) channel blocking specificity” value in [1] was “nonspecific KCNN (SK) channel blockers”.
